According to ChEMBL document CHEMBL3797031, “Structure-activity relationship study of 4-substituted piperidines at Leu26 moiety of novel p53-hDM2 inhibitors” (Bioorg Med Chem Lett, 2016):

Target: T1, E3 ubiquitin-protein ligase Mdm2 (Homo sapiens, UniProt Q00987)
Test: Binding affinity to human MDM2 assessed as inhibition of interaction with p53 by fluorescence polarization assay
Settings: not given

T1 sequence (Q00987 whole entry): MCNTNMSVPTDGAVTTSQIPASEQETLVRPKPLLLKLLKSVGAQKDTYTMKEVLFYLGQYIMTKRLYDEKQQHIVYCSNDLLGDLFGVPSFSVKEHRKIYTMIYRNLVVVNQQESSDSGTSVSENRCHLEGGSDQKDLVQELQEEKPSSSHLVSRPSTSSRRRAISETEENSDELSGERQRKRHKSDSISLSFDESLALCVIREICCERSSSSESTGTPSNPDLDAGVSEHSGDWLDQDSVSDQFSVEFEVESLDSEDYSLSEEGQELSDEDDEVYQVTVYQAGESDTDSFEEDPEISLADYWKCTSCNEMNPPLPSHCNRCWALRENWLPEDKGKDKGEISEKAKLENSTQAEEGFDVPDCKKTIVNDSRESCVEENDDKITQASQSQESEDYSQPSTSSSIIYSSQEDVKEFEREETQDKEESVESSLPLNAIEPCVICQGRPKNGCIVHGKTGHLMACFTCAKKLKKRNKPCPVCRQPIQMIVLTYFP

Structure (SMILES) | IC50
CCC[C@H]1N(C(=O)c2cnccc2C(F)(F)F)CCC[C@@]1(Oc1ccc(C(F)(F)F)cc1)C(=O)N1CCC(Oc2ccccc2C#N)CC1 | 8710 nM
CCC[C@H]1N(C(=O)c2cnccc2C(F)(F)F)CCC[C@@]1(Oc1ccc(C(F)(F)F)cc1)C(=O)N1CCC(Oc2ccncc2)CC1 | 224 nM
CCC[C@H]1N(C(=O)c2cnccc2C(F)(F)F)CCC[C@@]1(Oc1ccc(C(F)(F)F)cc1)C(=O)N1CCC(Oc2cc(C(N)=O)ccn2)CC1 | 8720 nM
CCC[C@H]1N(C(=O)c2cnccc2C(F)(F)F)CCC[C@@]1(Oc1ccc(C(F)(F)F)cc1)C(=O)N1CCC(Oc2cccc(C(=O)O)n2)CC1 | 42 nM
CCC[C@H]1N(C(=O)c2cnccc2C(F)(F)F)CCC[C@@]1(Oc1ccc(C(F)(F)F)cc1)C(=O)N1CCC(Oc2ccncn2)CC1 | 376 nM
CCC[C@H]1N(C(=O)c2cnccc2C(F)(F)F)CCC[C@@]1(Oc1ccc(C(F)(F)F)cc1)C(=O)N1CCC(Oc2cccc(OC)n2)CC1 | 1150 nM
CCC[C@H]1N(C(=O)c2cnccc2C(F)(F)F)CCC[C@@]1(Oc1ccc(C(F)(F)F)cc1)C(=O)N1CCC(Oc2ncccc2C#N)CC1 | 2400 nM
CCC[C@H]1N(C(=O)c2cnccc2C(F)(F)F)CCC[C@@]1(Oc1ccc(C(F)(F)F)cc1)C(=O)N1CCC(Oc2ncccc2CN)CC1 | 7740 nM
CCC[C@H]1N(C(=O)c2cnccc2C(F)(F)F)CCC[C@@]1(Oc1ccc(C(F)(F)F)cc1)C(=O)N1CCC(Sc2ccc(C)cc2)CC1 | 9360 nM
CCC[C@H]1N(C(=O)c2cnccc2C(F)(F)F)CCC[C@@]1(Oc1ccc(C(F)(F)F)cc1)C(=O)N1CCC(Sc2ccccc2)CC1 | 1980 nM
CCC[C@H]1N(C(=O)c2cnccc2C(F)(F)F)CCC[C@@]1(Oc1ccc(C(F)(F)F)cc1)C(=O)N1CCC(Oc2cccc(Cl)c2)CC1 | 2100 nM
CCC[C@H]1N(C(=O)c2cnccc2C(F)(F)F)CCC[C@@]1(Oc1ccc(C(F)(F)F)cc1)C(=O)N1CCC(Oc2cccc(C#N)c2)CC1 | 399 nM
CCC[C@H]1N(C(=O)c2cnccc2C(F)(F)F)CCC[C@@]1(Oc1ccc(C(F)(F)F)cc1)C(=O)N1CCC(Oc2ccc(C#N)cc2)CC1 | 1920 nM
CCC[C@H]1N(C(=O)c2cnccc2C(F)(F)F)CCC[C@@]1(Oc1ccc(C(F)(F)F)cc1)C(=O)N1CCC(Oc2cccc(Cl)n2)CC1 | 2360 nM
CCC[C@H]1N(C(=O)c2cnccc2C(F)(F)F)CCC[C@@]1(Oc1ccc(C(F)(F)F)cc1)C(=O)N1CCC(Oc2cccc(C(N)=O)n2)CC1 | 111 nM
CCC[C@H]1N(C(=O)c2cnccc2C(F)(F)F)CCC[C@@]1(Oc1ccc(C(F)(F)F)cc1)C(=O)N1CCC(Oc2cccc(C(F)(F)F)n2)CC1 | 2040 nM
CCC[C@H]1N(C(=O)c2cnccc2C(F)(F)F)CCC[C@@]1(Oc1ccc(C(F)(F)F)cc1)C(=O)N1CCC(Oc2cccc(C)c2)CC1 | 668 nM
CCC[C@H]1N(C(=O)c2cnccc2C(F)(F)F)CCC[C@@]1(Oc1ccc(C(F)(F)F)cc1)C(=O)N1CCC(Oc2cccnc2)CC1 | 267 nM
CCC[C@H]1N(C(=O)c2cnccc2C(F)(F)F)CCC[C@@]1(Oc1ccc(C(F)(F)F)cc1)C(=O)N1CCC(Oc2cc(C#N)ccn2)CC1 | 293 nM
CCC[C@H]1N(C(=O)c2cnccc2C(F)(F)F)CCC[C@@]1(Oc1ccc(C(F)(F)F)cc1)C(=O)N1CCC(Oc2ncccn2)CC1 | 334 nM
CCC[C@H]1N(C(=O)c2cnccc2C(F)(F)F)CCC[C@@]1(Oc1ccc(C(F)(F)F)cc1)C(=O)N1CCC(Oc2ccc(CN)cn2)CC1 | 801 nM

Structure (SMILES) | IC50
CCC[C@H]1N(C(=O)c2cnccc2C(F)(F)F)CCC[C@@]1(Oc1ccc(C(F)(F)F)cc1)C(=O)N1CCC(Oc2ncccc2C(N)=O)CC1 | 4280 nM
CCC[C@H]1N(C(=O)c2cnccc2C(F)(F)F)CCC[C@@]1(Oc1ccc(C(F)(F)F)cc1)C(=O)N1CCC(Oc2ccc(C#N)cn2)CC1 | 492 nM
CCC[C@H]1N(C(=O)c2cnccc2C(F)(F)F)CCC[C@@]1(Oc1ccc(C(F)(F)F)cc1)C(=O)N1CCC(Oc2cccc(C(=O)OC)n2)CC1 | 392 nM
CCC[C@H]1N(C(=O)c2cnccc2C(F)(F)F)CCC[C@@]1(Oc1ccc(C(F)(F)F)cc1)C(=O)N1CCC(Oc2cccc(C#N)n2)CC1 | 686 nM
CCC[C@H]1N(C(=O)c2cnccc2C(F)(F)F)CCC[C@@]1(Oc1ccc(C(F)(F)F)cc1)C(=O)N1CCC(Cc2ccccc2)CC1 | 5830 nM
CCC[C@H]1N(C(=O)c2cnccc2C(F)(F)F)CCC[C@@]1(Oc1ccc(C(F)(F)F)cc1)C(=O)N1CCC(Oc2cccc(Br)n2)CC1 | 1860 nM
CCC[C@H]1N(C(=O)c2cnccc2C(F)(F)F)CCC[C@@]1(Oc1ccc(C(F)(F)F)cc1)C(=O)N1CCC(Oc2cccc(C(=O)NC)n2)CC1 | 114 nM
CCC[C@H]1N(C(=O)c2cnccc2C(F)(F)F)CCC[C@@]1(Oc1ccc(C(F)(F)F)cc1)C(=O)N1CCC(Oc2ccccn2)CC1 | 150 nM
CCC[C@H]1N(C(=O)c2cnccc2C(F)(F)F)CCC[C@@]1(Oc1ccc(C(F)(F)F)cc1)C(=O)N1CCC(Oc2cnccn2)CC1 | 1060 nM
CCC[C@H]1N(C(=O)c2cnccc2C(F)(F)F)CCC[C@@]1(Oc1ccc(C(F)(F)F)cc1)C(=O)N1CCC(Oc2cccc(CN)n2)CC1 | 173 nM
CCC[C@H]1N(C(=O)c2cnccc2C(F)(F)F)CCC[C@@]1(Oc1ccc(C(F)(F)F)cc1)C(=O)N1CCC(Oc2ccccc2C)CC1 | 6600 nM
CCC[C@H]1N(C(=O)c2cnccc2C(F)(F)F)CCC[C@@]1(Oc1ccc(C(F)(F)F)cc1)C(=O)N1CCC(Oc2ccc(Cl)cc2)CC1 | 4110 nM
CCC[C@H]1N(C(=O)c2cnccc2C(F)(F)F)CCC[C@@]1(Oc1ccc(C(F)(F)F)cc1)C(=O)N1CCC(Oc2cc(CN)ccn2)CC1 | 4030 nM
CCC[C@H]1N(C(=O)c2cnccc2C(F)(F)F)CCC[C@@]1(Oc1ccc(C(F)(F)F)cc1)C(=O)N1CCC(Oc2ccccc2Cl)CC1 | 2760 nM
CCC[C@H]1N(C(=O)c2cnccc2C(F)(F)F)CCC[C@@]1(Oc1ccc(C(F)(F)F)cc1)C(=O)N1CCC(Oc2ccc(C(N)=O)cn2)CC1 | 144 nM
CCC[C@H]1N(C(=O)c2cnccc2C(F)(F)F)CCC[C@@]1(Oc1ccc(C(F)(F)F)cc1)C(=O)N1CCC(Oc2cncnc2)CC1 | 525 nM
CCC[C@H]1N(C(=O)c2cnccc2C(F)(F)F)CCC[C@@]1(Oc1ccc(C(F)(F)F)cc1)C(=O)N1CCC(Cc2ccc(C)cc2)CC1 | 25800 nM
CCC[C@H]1N(C(=O)c2cnccc2C(F)(F)F)CCC[C@@]1(Oc1ccc(C(F)(F)F)cc1)C(=O)N1CCC(Oc2ccccc2)CC1 | 2400 nM
CCC[C@H]1N(C(=O)c2cnccc2C(F)(F)F)CCC[C@@]1(Oc1ccc(C(F)(F)F)cc1)C(=O)N1CCC(Oc2cccc(C)n2)CC1 | 5030 nM
CCC[C@H]1N(C(=O)c2cnccc2C(F)(F)F)CCC[C@@]1(Oc1ccc(C(F)(F)F)cc1)C(=O)N1CCC(Oc2ccc(C)cc2)CC1 | 8770 nM

System: not listed separately
Test: Antiproliferative activity against human SJSA1 cells expressing wild type p53
Assay type: functional, cell-based
Settings: SJSA-1

Structure (SMILES) | IC50
CCC[C@H]1N(C(=O)c2cnccc2C(F)(F)F)CCC[C@@]1(Oc1ccc(C(F)(F)F)cc1)C(=O)N1CCC(Oc2cccc(C(=O)O)n2)CC1 | 4650 nM

System: not listed separately
Test: Antiproliferative activity against human HCT116 cells expressing wild type p53
Assay type: functional, cell-based
Settings: HCT-116

Structure (SMILES) | IC50
CCC[C@H]1N(C(=O)c2cnccc2C(F)(F)F)CCC[C@@]1(Oc1ccc(C(F)(F)F)cc1)C(=O)N1CCC(Oc2cccc(C(=O)O)n2)CC1 | 8650 nM

System: SK-UT-1
Test: Antiproliferative activity against human SK-UT-1 cells expressing mutant p53
Assay type: functional, cell-based
Settings: not given

Structure (SMILES) | IC50
CCC[C@H]1N(C(=O)c2cnccc2C(F)(F)F)CCC[C@@]1(Oc1ccc(C(F)(F)F)cc1)C(=O)N1CCC(Oc2cccc(C(=O)O)n2)CC1 | > 100000 nM

System: not listed separately
Test: Antiproliferative activity against p53 null human HCT116 cells
Assay type: functional, cell-based
Settings: HCT-116

Structure (SMILES) | IC50
CCC[C@H]1N(C(=O)c2cnccc2C(F)(F)F)CCC[C@@]1(Oc1ccc(C(F)(F)F)cc1)C(=O)N1CCC(Oc2cccc(C(=O)O)n2)CC1 | > 100000 nM

Target: Cytochrome P450 3A4 (Homo sapiens, UniProt P08684)
Sequence (P08684 whole entry): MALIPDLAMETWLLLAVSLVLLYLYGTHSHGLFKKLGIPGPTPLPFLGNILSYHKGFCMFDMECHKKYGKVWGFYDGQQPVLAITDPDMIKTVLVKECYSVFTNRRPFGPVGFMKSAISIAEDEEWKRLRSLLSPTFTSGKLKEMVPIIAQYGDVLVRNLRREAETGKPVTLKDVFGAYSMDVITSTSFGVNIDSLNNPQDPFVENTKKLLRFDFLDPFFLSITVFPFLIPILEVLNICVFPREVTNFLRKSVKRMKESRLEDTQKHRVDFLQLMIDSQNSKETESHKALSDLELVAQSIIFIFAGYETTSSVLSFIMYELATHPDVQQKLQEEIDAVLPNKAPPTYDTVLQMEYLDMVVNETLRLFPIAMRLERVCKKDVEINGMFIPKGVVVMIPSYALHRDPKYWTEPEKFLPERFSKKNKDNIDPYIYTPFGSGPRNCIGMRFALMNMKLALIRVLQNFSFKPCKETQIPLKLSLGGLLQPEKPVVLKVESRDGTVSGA
Test: Inhibition of CYP3A4 (unknown origin)
Assay type: ADME
Settings: not given

Structure (SMILES) | IC50
CCC[C@H]1N(C(=O)c2cnccc2C(F)(F)F)CCC[C@@]1(Oc1ccc(C(F)(F)F)cc1)C(=O)N1CCC(Oc2cccc(C(=O)O)n2)CC1 | > 50000 nM

Target: Cytochrome P450 2D6 (Homo sapiens, UniProt P10635)
Sequence (P10635 whole entry): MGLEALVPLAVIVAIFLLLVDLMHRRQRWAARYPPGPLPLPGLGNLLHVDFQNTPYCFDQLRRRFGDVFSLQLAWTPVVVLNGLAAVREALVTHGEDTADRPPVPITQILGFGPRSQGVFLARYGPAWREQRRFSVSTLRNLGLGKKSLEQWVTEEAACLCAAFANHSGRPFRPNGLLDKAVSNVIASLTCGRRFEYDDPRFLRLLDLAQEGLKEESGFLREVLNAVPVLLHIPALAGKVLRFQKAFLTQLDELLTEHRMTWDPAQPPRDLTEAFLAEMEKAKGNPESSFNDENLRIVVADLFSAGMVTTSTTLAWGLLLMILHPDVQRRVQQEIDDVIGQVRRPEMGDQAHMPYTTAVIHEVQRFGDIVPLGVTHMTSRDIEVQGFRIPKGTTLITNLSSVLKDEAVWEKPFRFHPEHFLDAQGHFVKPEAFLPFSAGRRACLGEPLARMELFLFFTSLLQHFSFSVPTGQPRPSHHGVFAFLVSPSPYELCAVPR
Test: Inhibition of CYP2D6 (unknown origin)
Assay type: ADME
Settings: not given

Structure (SMILES) | IC50
CCC[C@H]1N(C(=O)c2cnccc2C(F)(F)F)CCC[C@@]1(Oc1ccc(C(F)(F)F)cc1)C(=O)N1CCC(Oc2cccc(C(=O)O)n2)CC1 | > 50000 nM

Target: Cytochrome P450 2C9 (Homo sapiens, UniProt P11712)
Sequence (P11712 whole entry): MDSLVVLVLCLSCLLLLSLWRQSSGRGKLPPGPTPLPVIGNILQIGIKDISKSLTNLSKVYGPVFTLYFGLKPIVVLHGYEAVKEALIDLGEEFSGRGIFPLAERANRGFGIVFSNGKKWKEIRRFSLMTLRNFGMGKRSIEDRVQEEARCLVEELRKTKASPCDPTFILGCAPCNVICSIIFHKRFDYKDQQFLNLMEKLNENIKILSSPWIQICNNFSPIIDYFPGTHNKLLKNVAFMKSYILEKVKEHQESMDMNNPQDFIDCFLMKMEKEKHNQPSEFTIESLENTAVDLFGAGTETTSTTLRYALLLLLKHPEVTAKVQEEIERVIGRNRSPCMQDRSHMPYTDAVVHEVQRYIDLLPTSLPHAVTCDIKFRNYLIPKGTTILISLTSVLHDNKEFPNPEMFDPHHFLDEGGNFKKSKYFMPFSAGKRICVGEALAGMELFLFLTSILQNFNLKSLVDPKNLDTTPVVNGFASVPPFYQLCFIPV
Test: Inhibition of CYP2C9 (unknown origin)
Assay type: ADME
Settings: not given

Structure (SMILES) | IC50
CCC[C@H]1N(C(=O)c2cnccc2C(F)(F)F)CCC[C@@]1(Oc1ccc(C(F)(F)F)cc1)C(=O)N1CCC(Oc2cccc(C(=O)O)n2)CC1 | > 50000 nM

Target: T1, E3 ubiquitin-protein ligase Mdm2
Test: Binding affinity to human MDM2 by temperature dependent fluorescence assay
Settings: not given

Structure (SMILES) | Kd
O=C(c1cnccc1C(F)(F)F)N1CCCC(Oc2ccc(C(F)(F)F)cc2)(C(=O)N2CCN(c3ccccn3)CC2)C1 (centres undefined) | 500 nM
